The experiment has as its system HIF-1-mediated transcription. As to the kind of experiment: HIF-1-mediated transcription under hypoxia, LN229-HRE-Lux luciferase reporter assay. The experiment is classed as cell-based, human. To be noted: Homo sapiens, LN229-HRE-Lux cells, hypoxia (1% O2). Here is the method:
The synthesized analogues were evaluated for their potential to inhibit HIF-1-mediated transcription under hypoxia (1% O2) using a human glioma cell line LN229-HRE-Lux, which stably expresses a hypoxia-responsive luciferase reporter gene (Table 1-9). […] The compounds were tested in single (n=1) or multiple (n>1) independent experiments each carried out in quadruplicate.
LN229-HRE-luciferase human glioblastoma cells were used to perform the assay. […] 48-well plates were seeded with 3.10^4 cells per well and incubated under normoxic conditions for 24 h. Cells were then pre-treated with different concentrations of KCN-1 or its analogues for 1 h and then transferred to hypoxic conditions. After 24 h, media was aspirated, cells were lysed and reporter activity was measured in the lysate using Luciferase Assay System (Promega, Madison, Wis.) with 20/20^n Luminometer (Promega).

Setting [1] is: 24 h, Table 8, 24 h, results from single runs, read-out: IC50.
Where [2] appears, read: 24 h, Table 9, results from single runs.

The results in this text go back to patent publication US9062072B2, “Inhibitors of HIF and angiogenesis” (Emory University, priority 2010, dated 2015).

Where two headings read alike, the source gives them in different places.

Take `COc1ccc(S(=O)(=O)N(Cc2ccc3c(n2)C=CC(C)(C)O3)c2ccc(F)cc2)cc1OC` [Compound 26j, N-((2,2-dimethyl-2H-pyrano[3,2-b]pyridin-6-yl)methyl)-N-(4-fluorophenyl)-3,4-dimethoxybenzenesulfonamide]: the IC50 (24 h, Table 7, 24 h, results from single runs, read-out: IC50) came out at 5.7 µM.

Consider `CC1(C)C=Cc2nc(CN(c3ccccc3)S(=O)(=O)C3CCCCC3)ccc2O1` [Compound 26k, N-((2,2-Dimethyl-2H-pyrano[3,2-b]pyridin-6-yl)methyl)-N-phenylcyclohexanesulfonamide], for which, under “24 h, Table 8, results from single runs”, the IC50 is 0.4 µM.

For `CC(C)S(=O)(=O)N(Cc1ccc2c(n1)C=CC(C)(C)O2)c1ccccc1` [Compound 26l, N-((2,2-Dimethyl-2H-pyrano[3,2-b]pyridin-6-yl)methyl)-N-phenylpropane-2-sulfonamide], the IC50 under setting [1] is 13.4 µM.

Take `CC1(C)C=Cc2nc(CN(c3ccccc3)S(=O)(=O)C3CC3)ccc2O1` [Compound 26m, N-((2,2-Dimethyl-2H-pyrano[3,2-b]pyridin-6-yl)methyl)-N-phenylcyclopropanesulfonamide]: the IC50 under setting [1] is > 25 µM.

Regarding `CCCCS(=O)(=O)N(Cc1ccc2c(n1)C=CC(C)(C)O2)c1ccccc1` [Compound 26n, N-((2,2-Dimethyl-2H-pyrano[3,2-b]pyridin-6-yl)methyl)-N-phenylbutane-1-sulfonamide], under setting [1], the IC50 is 5 µM.

As for `CCCS(=O)(=O)N(Cc1ccc2c(n1)C=CC(C)(C)O2)c1ccccc1` [Compound 26o, N-((2,2-Dimethyl-2H-pyrano[3,2-b]pyridin-6-yl)methyl)-N-phenylpropane-1-sulfonamide], the IC50 under setting [1] was 6.4 µM.

With `CC(C)CS(=O)(=O)N(Cc1ccc2c(n1)C=CC(C)(C)O2)c1ccccc1` [Compound 26p, N-((2,2-Dimethyl-2H-pyrano[3,2-b]pyridin-6-yl)methyl)-2-methyl-N-phenylpropane-1-sulfonamide], under setting [1], the IC50 came to 0.9 µM.

Consider `CC1(C)C=Cc2nc(CN(c3ccccc3)S(=O)(=O)c3ccc(-c4ccccc4)cc3)ccc2O1` [Compound 26q, N-((2,2-Dimethyl-2H-pyrano[3,2-b]pyridin-6-yl)methyl)-N-phenylbiphenyl-4-sulfonamide], for which, under setting [1], the IC50 came to 3.4 µM.

Regarding `CC1(C)C=Cc2nc(CN(c3ccccc3)S(=O)(=O)c3cccc4cccnc34)ccc2O1` [Compound 26s, N-((2,2-Dimethyl-2H-pyrano[3,2-b]pyridin-6-yl)methyl)-N-phenylquinoline-8-sulfonamide], the 50% inhibitory concentration (IC50) under setting [1] was 0.9 µM and the IC50 (24 h, 24 h, read-out: IC50) came to 0.9 µM.

`CC1(C)C=Cc2nc(CN(c3ccccc3)S(=O)(=O)c3ccc4c(c3)OCCO4)ccc2O1` [Compound 26t, N-((2,2-dimethyl-2H-pyrano[3,2-b]pyridin-6-yl)methyl)-N-phenyl-2,3-dihydrobenzo[b][1,4]dioxine-6-sulfonamide]: under setting [1], the IC50 turned out to be 0.9 µM.

As for `COc1ccc(S(=O)(=O)N(Cc2cc3c(cn2)OC(C)(C)C=C3)c2ccccc2)cc1` [Compound 36a, N-((2,2-Dimethyl-2H-pyrano[2,3-c]pyridin-6-yl)methyl)-4-methoxy-N-phenylbenzenesulfonamide], the IC50 runs as follows: (24 h, Table 9, 24 h, results from single runs, read-out: IC50) 1.4 µM; (24 h, 24 h, read-out: IC50) 1.42 µM.

`CC1(C)C=Cc2cc(CN(c3ccccc3)S(=O)(=O)c3ccc([N+](=O)[O-])cc3)ncc2O1` [Compound 36b, N-((2,2-Dimethyl-2H-pyrano[2,3-c]pyridin-6-yl)methyl)-4-nitro-N-phenylbenzenesulfonamide]: the concentration for half-maximal inhibition (IC50) worked out at 1.8 µM under setting [2] and 1.8 µM (24 h).

Turning to `CC(C)c1ccc(S(=O)(=O)N(Cc2cc3c(cn2)OC(C)(C)C=C3)C2CCCCC2)cc1` [Compound 36c, N-Cyclohexyl-N-((2,2-dimethyl-2H-pyrano[2,3-c]pyridin-6-yl)methyl)-4-isopropylbenzenesulfonamide], the IC50 runs as follows: under setting [2], 1.1 µM; (24 h) 1.08 µM.

`COc1ccc(S(=O)(=O)N(Cc2cc3c(cn2)OC(C)(C)C=C3)C2CCCCC2)cc1OC` [Compound 36d, N-Cyclohexyl-N-((2,2-dimethyl-2H-pyrano[2,3-c]pyridin-6-yl)methyl)-3,4-dimethoxybenzenesulfonamide] came in with an IC50 under setting [2] of 5.8 µM.

Regarding `COc1ccc(S(=O)(=O)N(Cc2ccc3c(c2)C=CC(C)(C)O3)c2ccccc2)cc1OC` [KCN-1, N-((2,2-dimethyl-2H-chromen-6-yl)methyl)-3,4-dimethoxy-N-phenylbenzenesulfonamide, reference compound], where the note is “n=26, read-out: IC50”, the IC50 was 0.7 ± 0.4 µM.
